{"source": "patent US10174008B2", "about": "“Synthesis of cyclopropyl indoles and cyclohepta[B]indoles, pharmaceutical compositions containing them and method of using them” (WISCONSIN ALUMNI RESEARCH FOUNDATION, priority 2014, dated 2019)", "key": {"[1]": {"test": "Cytotoxicity (PCSK9 Secretion Cell Health HepG2)", "type": "cell-based", "settings": "human, HepG2 cells; read-out: IC50-B cytotoxicity", "text": "(§1) PCSK9 expression is actively regulated at transcription levels. Statins are known to stimulate PCSK9 transcription which in turn curbs the efficacy of statins in LDL lowering in humans. […] A number of primary and secondary assays to measure PCSK9 secretion/modulation in response to putative active agents are known. Primary assays: PCSK9 Secretion HepG2 SP/CRC (% Inhibition/IC50); PCSK9 Secretion Cell Health HepG2 SP/CRC (% Inhibition/IC50); and Metabolic Luciferase Reporter Assay CRC (IC50). Secondary assays: PCSK9 ELISA HepG2 CRC (IC50); ApoA-1 ELISA HepG2 CRC (IC50), and Profiling Biochemical Activity—Kinase Panel SP/CRC (% Efficacy/IC50). All of these assays are publicly accessible via Lilly's Open Innovation Drug Discovery program (as well as other sources)."}, "IL5": {"tested_on": "IL5", "test": "IL5 inhibition", "type": "cell-based"}, "PCSK9 secretion": {"tested_on": "PCSK9 secretion", "test": "PCSK9 secretion in HepG2 cells", "type": "cell-based", "settings": "Homo sapiens", "text": "as §1"}, "protein secretion": {"tested_on": "protein secretion", "test": "Non-selective inhibition at protein secretion", "type": "cell-based", "settings": "Homo sapiens; HepG2 cells; read-out: IC50-C non-selective inhibition at protein secretion", "text": "as §1"}, "IL17 secretion": {"tested_on": "IL17 secretion", "test": "IL17 secretion from human PBMCs stimulated with IL23, anti-CD3 and anti-CD28", "type": "cell-based", "settings": "PBMC", "text": "The present compounds are thus useful to treat autoimmune disorders such as (but not limited to) arthritis, multiple sclerosis, psoriasis, and inflammatory bowel disease. The IL-17 pathway plays an essential pathological role in many autoimmune diseases including arthritis, multiple sclerosis, psoriasis, and inflammatory bowel disease. IL-17 is produced and secreted by at least two classes of lymphocytes, δγ and CD4+ T cells (Th17). The orphan nuclear receptor RORg is required for the differentiation of Th17 cells where over-expression in human and rodent T cells induces transcripts found in Th17 cells encoding key cytokines for the IL23 receptor and chemokines for the CCR6 receptor. In addition to RORg, recent global analysis of transcription factors has highlighted the molecular complexity of the Th17 differentiation program.\nActive compounds are identified by measuring their ability to inhibitor IL17 secretion from human peripheral blood mononuclear cells (PBMCs) following stimulation of memory T cells by IL23, anti-CD3, and anti-CD28. See M. Ciofani, et al (2012) “A validated regulatory network for Th17 cell specification.” Cell, 151:289-303."}, "GLP-1 secretion": {"tested_on": "GLP-1 secretion", "test": "GLP-1 secretion (ELISA)", "type": "cell-based", "text": "Similarly, the present indole compounds also modify the activity of glucagon-like peptide 1 (GLP-1), which plays a critical role in hyperglycemia and diabetes in humans. Glucagon-like peptide 1 (GLP-1) is derived from transcription of the proglucagon gene followed by post-translational modifications of proglucagon to the following biologically active peptides: GLP-1 (7-37) and GLP-1 (7-36)-NH2. GLP-1 secretion by ileal L cells is dependent on the presence of nutrients in the lumen of the small intestine. GLP-1 is a potent anti-hyperglycemic hormone that induces glucose-dependent insulin secretion and suppresses glucagon secretion.\nGLP-1 secretion is measured using an ELISA designed to detect the appropriate forms of GLP-1 secreted from these cells. See, for example, Gareth E. Kim and Patricia L. Brubaker (December 2006) “Glucagon-Like Peptide 1 Secretion by the L-Cell,” Diabetes: 55 (supplement 2)."}, "[2]": {"settings": "HepG2 cells, read-out: IC50-A inhibition of PCSK9 secretion"}}, "note": "Read-outs that look alike come from different tables or passages of the source."}
{"smiles": "COc1ccc(C2C[C@@H]2c2c(C)c3ccccc3n2S(=O)(=O)c2ccc(C)cc2)cc1", "note": "(stereo in doubt) [8a, 2-(2-(4-methoxyphenyl)cyclopropyl)-3-methyl-1-tosyl-1H-indole]", "values": [{"measurement": "IC50", "setting": "[1]", "result": "> 50", "unit": "µM"}, {"measurement": "melting point", "result": "155 to 156", "unit": "°C"}, {"measurement": "IC50", "setting": "IL5", "result": "> 30", "unit": "µM"}, {"measurement": "IC50", "setting": "PCSK9 secretion; HepG2, read-out: PCSK9, IC50", "result": 1.8, "unit": "µM"}, {"measurement": "IC50", "setting": "PCSK9 secretion; [2]", "result": 1.8, "unit": "µM"}, {"measurement": "IC50", "setting": "protein secretion", "result": "> 50", "unit": "µM"}, {"measurement": "IC50", "setting": "IL17 secretion", "result": 10, "unit": "µM"}]}
{"smiles": "COc1ccc(C2C=CCCc3c2c2ccccc2n3S(=O)(=O)c2ccc(C)cc2)cc1", "note": "(stereo not shown) [compound 14, (Z)-10-(4-methoxyphenyl)-5-tosyl-5,6,7,10-tetrahydrocyclohepta[b]indole]", "values": [{"measurement": "EC50", "setting": "GLP-1 secretion", "result": 28.4, "unit": "µM"}, {"measurement": "melting point", "result": "75 to 76", "unit": "°C"}]}
{"smiles": "CCc1c(C2CC2c2ccc(OC)cc2)n(S(=O)(=O)c2ccc(C)cc2)c2ccccc12", "note": "(stereo not shown) [10g, 3-ethyl-2-(2-(4-methoxyphenyl)cyclopropyl)-1-tosyl-1H-indole]", "values": [{"measurement": "IC50", "setting": "[1]", "result": "> 50", "unit": "µM"}, {"measurement": "IC50", "setting": "PCSK9 secretion; HepG2, read-out: PCSK9, IC50", "result": 0.7, "unit": "µM"}, {"measurement": "IC50", "setting": "PCSK9 secretion; [2]", "result": 0.7, "unit": "µM"}, {"measurement": "IC50", "setting": "protein secretion", "result": "> 50", "unit": "µM"}]}
{"smiles": "Cc1ccc(S(=O)(=O)n2c(C3C[C@]3(CO)c3ccccc3)c(C)c3ccccc32)cc1", "note": "(stereo in doubt) [8i, (2-(3-methyl-1-tosyl-1H-indol-2-yl)-1-phenylcyclopropyl)methanol]", "values": [{"measurement": "EC50", "setting": "GLP-1 secretion", "result": 7.3, "unit": "µM"}, {"measurement": "melting point", "result": "57 to 58", "unit": "°C"}]}
{"smiles": "Cc1ccc(S(=O)(=O)n2c([C@@H]3CC3c3ccccc3)c(C)c3ccccc32)cc1", "note": "(stereo in doubt) [8b, 3-methyl-2-(2-phenylcyclopropyl)-1-tosyl-1H-indole]", "values": [{"measurement": "melting point", "result": "156 to 157", "unit": "°C"}, {"measurement": "IC50", "setting": "PCSK9 secretion; HepG2, read-out: PCSK9, IC50", "result": 21, "unit": "µM"}, {"measurement": "IC50", "setting": "PCSK9 secretion; [2]", "result": 21, "unit": "µM"}]}
{"smiles": "Cc1ccc(S(=O)(=O)n2c([C@H]3C[C@H]3c3ccc4c(c3)OCO4)c(C)c3ccccc32)cc1", "note": "[8f, 2-(2-(benzo[d][1,3]dioxol-5-yl)cyclopropyl)-3-methyl-1-tosyl-1H-indole]", "values": [{"measurement": "IC50", "setting": "[1]", "result": "> 50", "unit": "µM"}, {"measurement": "melting point", "result": "106 to 107", "unit": "°C"}, {"measurement": "IC50", "setting": "IL5", "result": "> 30", "unit": "µM"}, {"measurement": "IC50", "setting": "PCSK9 secretion; HepG2, read-out: PCSK9, IC50", "result": 9.9, "unit": "µM"}, {"measurement": "IC50", "setting": "PCSK9 secretion; [2]", "result": 9.9, "unit": "µM"}, {"measurement": "IC50", "setting": "protein secretion", "result": "> 50", "unit": "µM"}, {"measurement": "IC50", "setting": "IL17 secretion", "result": 7.3, "unit": "µM"}]}
